Measured values: PubChem BioAssay (NCI)
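Grown in 96-well plates, cells were treated for 48 hours with each compound at five concentrations. Insufficient inhibition: endpoint recorded as highest concentration tested. The concentration for 50% growth inhibition is given as GI50. TGI denotes the concentration required for complete inhibition of growth.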

How the values were obtained:
Assay in all cases: NCI-60 cell line screen, 48 h
NCI-H522 lung = test system: NCI-H522 lung
M14 melanoma = test system: M14 melanoma
RXF 393 renal = test system: RXF 393 renal
UO-31 renal = test system: UO-31 renal
SW-620 colon = test system: SW-620 colon
NCI-H23 lung = test system: NCI-H23 lung

Row | SMILES | TGI (NCI-H522 lung) [µM] | TGI (M14 melanoma) [µM] | TGI (RXF 393 renal) [µM] | TGI (UO-31 renal) [µM] | TGI (SW-620 colon) [µM] | TGI (NCI-H23 lung) [µM] | GI50 (NCI-H522 lung) [µM] | GI50 (M14 melanoma) [µM] | GI50 (UO-31 renal) [µM] | GI50 (SW-620 colon) [µM]
1 | CC(C)CCNC(=O)c1ccc(CNC(=O)/C=C/c2ccc3c(c2)-c2ccccc2C3)cc1 | > 100 | > 100 | 82.6 | > 100 | > 100 | > 100 | – | – | – | –
2 | O=C1C/C(=C\c2ccccc2)C(=O)c2ccccc2N1 | 51.9 | 44.1 | 35.8 | – | 40.7 | 48.1 | – | – | – | –
3 | CC(C)C1CC(CO)(CNc2nc(N)nc(Cl)c2C=O)C1 (centres undefined) | 1.14 | 3.24 | 28.3 | 13 | 21.8 | 4.64 | – | – | – | –
4 | COc1cc(CCNC2=CC(=O)c3ncccc3C2=O)ccc1O | 10.3 | 3.05 | 18 | 17.3 | 12.1 | 11.8 | – | – | – | –
5 | COc1ccc2nc3cc(Cl)ccc3c(NCCCN(C)CCCNc3ccc4ncn5c6ccccc6c(=O)c3c45)c2c1 | 1.73 | 5.8 | 1.14 | 7.28 | > 25 | 6.13 | – | – | – | –
6 | CC1=C(C(N)=O)C(c2ccncc2)C(C#N)C(=O)N1 (centres undefined) | – | > 100 | > 100 | > 100 | > 100 | > 100 | – | – | – | –
7 | CC(C)=CCN1c2ccccc2[C@@]2(CC=C(C)C)CCN(C)[C@@H]12 | 39.9 | – | > 100 | 41.8 | > 100 | > 100 | – | – | – | –
8 | COc1ccc(N(c2ccc(C#N)cc2)c2ccc(C#N)cc2)cc1 | 82.9 | > 100 | – | > 100 | > 100 | > 100 | – | – | – | –
9 | NC(Cc1c2ccccc2cc2ccccc12)C(=O)O (centres undefined) | > 100 | > 100 | > 100 | > 100 | > 100 | > 100 | – | – | – | –
10 | CCO/C=N\C1=C(C#N)SC2=N/C(=C\c3ccco3)C(=O)N21 | > 100 | > 100 | > 100 | > 100 | > 100 | > 100 | – | – | – | –
11 | c1ccc2sc(C3(N4CCCCCC4)CCCCC3)cc2c1 | 36.4 | 53.6 | 33.4 | 56.2 | 36.6 | 41.5 | – | – | – | –
12 | C[C@@H](NC(=O)Nc1cccc(C(=O)Nc2cc(C(C)(C)C)ccc2C(=O)O)n1)c1ccccc1 | > 100 | > 100 | 38.5 | > 100 | > 100 | > 100 | – | – | – | –
13 | CC(C(=O)NCNC(=O)c1ccccc1)C(=O)NCc1ccccc1 (centres undefined) | > 100 | > 100 | > 100 | > 100 | > 100 | > 100 | – | – | – | –
14 | Nc1nc(NCc2ccccc2)cc(NCc2ccccc2)n1 | 19.2 | 39.5 | 26.6 | 21 | > 100 | 20 | – | – | – | –
15 | CC12CCC(C(=Nc3ccc([N+](=O)[O-])cc3)C1=O)C2(C)C (centres undefined) | – | > 100 | 44.9 | > 100 | 98.4 | 99.5 | – | – | – | –
16 | C/C(=C/C(=O)N(C)c1ccccc1Cl)O[Si](C(C)C)(C(C)C)C(C)C | 31.8 | 70.9 | 34.5 | 39.3 | 38.9 | 62.2 | – | – | – | –
17 | COc1ccc(C2OC2C(=O)C23CC4CC(CC(C4)C2)C3)cc1 (centres undefined) | > 100 | > 100 | > 100 | > 100 | > 100 | > 100 | – | – | – | –
18 | CCOP(=O)(OCC)/C(F)=C/c1ccc(F)cc1 | > 100 | > 100 | > 100 | > 100 | > 100 | > 100 | – | – | – | –
19 | CCOC(=O)n1c(=O)nc2c3c(ncn21)Oc1c(c(-c2ccccc2)nn1-c1ccccc1)C3c1ccc(Cl)cc1 (centres undefined) | 3.11 | 3.33 | 2.91 | 2.85 | 3.09 | 3.17 | – | – | – | –
20 | COC(=O)[C@@H](N1C(=O)c2ccccc2C1=O)C1(C)CC(Cl)=NO1 (some centres undefined) | 79.1 | > 100 | > 100 | > 100 | > 100 | > 100 | – | – | – | –
21 | COC(=O)c1c(O)ccc2c1c1c(n2CCc2ccccc2)C(=O)c2ccccc2C1 | – | 55.2 | 31.3 | 49.7 | > 100 | 74.1 | – | – | – | –
22 | NC(C(=O)O)C(O)c1cnc[nH]1 (centres undefined) | > 100 | > 100 | > 100 | – | > 100 | > 100 | – | – | – | –
23 | CC(=O)O[C@H]1CC[C@@]2(C)C(=CC[C@@H]3[C@@H]2CC[C@]2(C)C(=O)/C(=C\c4ccccc4)C[C@@H]32)C1 | > 100 | > 100 | > 100 | > 100 | > 100 | > 100 | – | – | – | –
24 | N#Cc1nc(CCC(C(=O)O)N2C(=O)c3ccccc3C2=O)oc1N (centres undefined) | > 100 | > 100 | > 100 | > 100 | > 100 | > 100 | – | – | – | –
25 | COC(=O)C#CC1(O)C=CC(=O)C=C1 | 0.552 | 12.1 | 3.76 | 10.6 | – | 6.28 | – | – | – | –
26 | COc1ccc2c(c1)SC1=Nc3sc4cc(OC)ccc4[n+]3CN12 | 8.5 | > 100 | – | > 100 | > 100 | > 100 | – | – | – | –
27 | O=c1[nH]nc(Nc2ccc(Cl)cc2)c2nnn(-c3ccc([N+](=O)[O-])cc3)c12 | 18 | > 100 | – | – | > 100 | 24.9 | – | – | – | –
28 | O[C@@H]1CCCCN1Cc1cc2cc3c(cc2c2cc(OCc4ccccc4)ccc12)OCO3 | 2.91 | 2.96 | – | 2.89 | 2.7 | – | 1.49 | 1.59 | 1.53 | 1.17
29 | N#CC(C#N)=CNC(=S)Nc1ccc(S(=O)(=O)Nc2nccs2)cc1 | – | > 100 | > 100 | > 100 | > 100 | > 100 | – | – | – | –
30 | CC(=O)OCCn1c(Cc2ccc(Cl)cc2)nn(C(C)=O)c1=O | > 100 | > 100 | – | > 100 | > 100 | > 100 | – | – | – | –
